Assay results published in ChEMBL document CHEMBL1201862, “PubChem BioAssay data set” (2004).
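Results reflect a 48-hour exposure of cells in 96-well plates to compound at five concentrations. At the GI50, growth is halved.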 Activity calls are given as the source filed them. Rule as the data show it: active = GI50 up to about 1.1 µM and inactive = higher.

What was measured:
Assay in all cases: NCI-60 cell line screen, 48 h
[1] = test system: SW-620
[2] = test system: T47D
[3] = test system: SF-295
[4] = test system: SNB-75
[5] = test system: UACC-62
[6] = test system: M14
[7] = test system: RXF 393
[8] = test system: A549
[9] = test system: SNB-19
[10] = test system: HCT-15
[11] = test system: KM12
[12] = test system: Malme-3M
[13] = test system: SK-MEL-5
[14] = test system: OVCAR-8
[15] = test system: MDA-MB-435
[16] = test system: UO-31
[17] = test system: OVCAR-4
[18] = test system: K562
[19] = test system: SR
[20] = test system: U-251

With `c1ccc2c[n+](CCCCCCCCCC[n+]3ccc4ccccc4c3)ccc2c1` the GI50 [1] was > 10 µM (inactive), the GI50 [2] was > 10 µM (inactive) and the GI50 [3] was 3.59 µM (inactive). For the same compound, the GI50 [4] was 3.68 µM (inactive), the GI50 [5] was > 10 µM (inactive) and the GI50 [6] was > 10 µM (inactive). For the same compound, the GI50 [7] was > 10 µM (inactive), the GI50 [8] was 0.585 µM (active) and the GI50 [9] was > 10 µM (inactive). For the same compound, the GI50 [10] was greater than 10 µM, the GI50 [11] was > 5.68 µM (inactive) and the GI50 [12] was > 10 µM (inactive). The GI50 [13] was 2.66 µM (inactive), the GI50 [14] was > 10 µM (inactive) and the GI50 [15] was > 10 µM (inactive). The GI50 [16] was > 10 µM (inactive), the GI50 [17] was > 10 µM (inactive) and the GI50 [18] was 2.04 µM (inactive). The GI50 [19] was > 10 µM (inactive) and the GI50 [20] was > 8.59 µM (inactive).

In the case of `O=c1ccn(C/C=C/c2ccccc2)c(=S)n1C/C=C/c1ccccc1`, the GI50 [1] is reported as > 100 µM (inactive), the GI50 [2] is reported as 20.9 µM (inactive) and the GI50 [3] is reported as > 100 µM (inactive). For the same compound, the GI50 [4] was > 100 µM (inactive), the GI50 [5] was > 100 µM (inactive) and the GI50 [6] was 73.6 µM (inactive). The GI50 [7] was 9.75 µM (inactive), the GI50 [8] was 17.7 µM (inactive) and the GI50 [9] was > 100 µM (inactive). The GI50 [10] was greater than 100 µM, the GI50 [11] was > 100 µM (inactive) and the GI50 [12] was 89.1 µM (inactive). The GI50 [13] was 35.2 µM (inactive), the GI50 [14] was > 100 µM (inactive) and the GI50 [15] was 60 µM (inactive). The GI50 [16] was 76 µM (inactive), the GI50 [17] was 90.4 µM (inactive) and the GI50 [18] was 15.8 µM (inactive). For the same compound, the GI50 [19] was 8.24 µM (inactive) and the GI50 [20] was 77.1 µM (inactive).

In the case of `Cc1c(C)c2c(c(N)c1C#N)C(=O)N(CCc1ccccc1)C2=O`, the GI50 [1] is reported as > 100 µM (inactive), the GI50 [2] is reported as > 100 µM (inactive) and the GI50 [3] is reported as > 100 µM (inactive). For the same compound, the GI50 [4] was > 100 µM (inactive), the GI50 [5] was > 100 µM (inactive) and the GI50 [6] was > 100 µM (inactive). For the same compound, the GI50 [7] was > 100 µM (inactive), the GI50 [8] was 94.8 µM (inactive) and the GI50 [9] was > 100 µM (inactive). For the same compound, the GI50 [10] was greater than 100 µM, the GI50 [11] was > 100 µM (inactive) and the GI50 [12] was > 100 µM (inactive). The GI50 [13] was > 100 µM (inactive), the GI50 [14] was > 100 µM (inactive) and the GI50 [15] was > 100 µM (inactive). For the same compound, the GI50 [16] was > 100 µM (inactive), the GI50 [17] was > 100 µM (inactive) and the GI50 [18] was > 100 µM (inactive). The GI50 [19] was 38.5 µM (inactive) and the GI50 [20] was > 100 µM (inactive).

In the case of `CCCCCCCCCCCCCCCC(=O)OCC(C[As](=O)(O)O)OC(=O)CCCCCCCCCCCCCCC` (stereo not given), the GI50 [1] is reported as > 50.9 µM (inactive), the GI50 [2] is reported as > 100 µM (inactive) and the GI50 [3] is reported as > 82.6 µM (inactive). The GI50 [4] was 33 µM (inactive), the GI50 [5] was > 100 µM (inactive) and the GI50 [6] was > 100 µM (inactive). For the same compound, the GI50 [7] was > 68.1 µM (inactive), the GI50 [8] was > 100 µM (inactive) and the GI50 [9] was > 56.8 µM (inactive). The GI50 [10] was greater than 66.5 µM, the GI50 [11] was > 100 µM (inactive) and the GI50 [12] was > 74.8 µM (inactive). The GI50 [13] was > 100 µM (inactive), the GI50 [14] was > 100 µM (inactive) and the GI50 [15] was > 100 µM (inactive). For the same compound, the GI50 [16] was > 100 µM (inactive), the GI50 [17] was > 100 µM (inactive) and the GI50 [18] was > 100 µM (inactive). The GI50 [19] was > 100 µM (inactive) and the GI50 [20] was > 65.6 µM (inactive).

For `COc1ccccc1C[C@@H]1OC2(C=CC(=O)CC2SC(=O)c2ccccc2)O[C@H]1Cc1ccccc1OC` (stereo not given in full), the GI50 [1] was 0.324 µM (active), the GI50 [2] was 1.6 µM (inactive) and the GI50 [3] was 1.63 µM (inactive). The GI50 [4] was 1.78 µM (inactive), the GI50 [5] was 2.71 µM (inactive) and the GI50 [6] was 1.56 µM (inactive). For the same compound, the GI50 [7] was 0.121 µM (active), the GI50 [8] was 2.9 µM (inactive) and the GI50 [9] was 1.91 µM (inactive). For the same compound, the GI50 [10] was 1.05 µM, the GI50 [11] was 2.48 µM (inactive) and the GI50 [12] was 1.77 µM (inactive). The GI50 [13] was 1.62 µM (inactive), the GI50 [14] was 0.216 µM (active) and the GI50 [15] was 1.94 µM (inactive). For the same compound, the GI50 [16] was 1.28 µM (inactive), the GI50 [17] was 1.33 µM (inactive) and the GI50 [18] was 2.51 µM (inactive). For the same compound, the GI50 [19] was 0.308 µM (active) and the GI50 [20] was 1.44 µM (inactive).

In the case of `C[C@]12CC[C@H]3[C@@H](CCC4=CC(=O)CC[C@@H]43)[C@@H]1CC[C@@H]2OC1(O)C(=O)c2ccccc2C1=O`, the GI50 [1] is reported as 40.6 µM (inactive), the GI50 [2] is reported as 36.7 µM (inactive) and the GI50 [3] is reported as > 100 µM (inactive). The GI50 [4] was 56.9 µM (inactive), the GI50 [5] was 11.7 µM (inactive) and the GI50 [6] was 44.6 µM (inactive). The GI50 [7] was 33.3 µM (inactive), the GI50 [8] was > 100 µM (inactive) and the GI50 [9] was > 100 µM (inactive). For the same compound, the GI50 [10] was 37.8 µM, the GI50 [11] was > 100 µM (inactive) and the GI50 [12] was 34 µM (inactive). The GI50 [13] was 19.5 µM (inactive), the GI50 [14] was 45.2 µM (inactive) and the GI50 [15] was 32.7 µM (inactive). The GI50 [16] was 26.2 µM (inactive), the GI50 [17] was 91.4 µM (inactive) and the GI50 [18] was 35.3 µM (inactive). For the same compound, the GI50 [19] was 35.6 µM (inactive) and the GI50 [20] was 48.8 µM (inactive).
